Patent US20200306295A1, “METHOD AND DEVICE FOR ANNIHILATION OF Staphylococcus aureus” (priority 2017, published 2020)

Test system: 200 kinds of cytokines
Assay: Fold change of 200 cytokines in homogenized wound tissue
Type: in vivo, Balb/c mice
Excerpt: To quantify the physiological condition of the wound tissues, we measured the concentrations of 200 kinds of cytokines (Table. 1) from the supernatant of homogenized tissue solution. Cytokines are small secreted proteins released by cells and have specific effect on the interactions and communications between cells (25).
To initiate the formation of a skin wound, five groups (n=5) of eight-week old female Balb/c mice (obtained from Harlan Laboratories, Indianapolis, Ind., USA) were disinfected with ethanol (70%) and shaved on the middle of the back (approximately a one-inch by one-inch square region around the injection site) one day prior to infection as described from a reported procedure (3). To prepare the bacterial inoculum, an aliquot of overnight culture of MRSA USA300 was transferred to fresh Tryptic soy broth and shaken at 37° C. until an OD600 value of ˜1.0 was achieved. The cells were centrifuged, washed once with PBS, re-centrifuged, and then re-suspended in PBS. Mice subsequently received an intradermal injection (40 μL) containing 2.40×10^9 CFU/mL MRSA USA300.
One group of mice was left untreated (negative control). Each group of mice receiving a particular treatment regimen was housed separately in a ventilated cage with appropriate bedding, food, and water. […] Mice were treated twice daily (once every 12 hours) for three days, before they were humanely euthanized via CO2 asphyxiation 12 hours after the last dose was administered. The region around the skin wound was lightly swabbed with ethanol (70%) and excised. The tissue was subsequently homogenized in PBS. The homogenized tissue was then serially diluted in PBS before plating onto mannitol salt agar plates. Plates were incubated for at least 19 hours at 37° C. before viable MRSA CFU/mL were counted for each group. Outlier was removed based upon the Dixon Q Test.

Structure (SMILES): CC(=O)O[C@H]1C[C@@]2(C)[C@@H](C[C@@H](O)[C@H]3[C@@]4(C)CC[C@@H](O)[C@@H](C)[C@@H]4CC[C@@]32C)/C1=C(\CCC=C(C)C)C(=O)O [fusidic acid]
- fold change of MBL-2 (mean) (cytokine MBL-2, group mean, wound tissue of MRSA-infected mice): 0.0893
- fold change of Meteorin (mean) (cytokine Meteorin, group mean, wound tissue of MRSA-infected mice): 0.3361
- fold change of NOV (mean) (cytokine NOV, group mean, wound tissue of MRSA-infected mice): −0.2053
- fold change of Nope (mean) (cytokine Nope, group mean, wound tissue of MRSA-infected mice): 0.0534
- fold change of OX40 Ligand (mean) (cytokine OX40 Ligand, group mean, wound tissue of MRSA-infected mice): −0.1454
- fold change of Osteoactivin (mean) (cytokine Osteoactivin, group mean, wound tissue of MRSA-infected mice): 1.1132
- fold change of P-Cadherin (mean) (cytokine P-Cadherin, group mean, wound tissue of MRSA-infected mice): 0.5883
- fold change of Periostin (mean) (cytokine Periostin, group mean, wound tissue of MRSA-infected mice): 0.1651
- fold change of PlGF-2 (mean) (cytokine PlGF-2, group mean, wound tissue of MRSA-infected mice): −0.0798
- fold change of Progranulin (mean) (cytokine Progranulin, group mean, wound tissue of MRSA-infected mice): −0.4424
- fold change of Prostasin (mean) (cytokine Prostasin, group mean, wound tissue of MRSA-infected mice): 0.1030
- fold change of Renin 1 (mean) (cytokine Renin 1, group mean, wound tissue of MRSA-infected mice): −0.4138
- fold change of TIM-1 (mean) (cytokine TIM-1, group mean, wound tissue of MRSA-infected mice): −0.0806
- fold change of Testican 3 (mean) (cytokine Testican 3, group mean, wound tissue of MRSA-infected mice): −0.4097
- fold change of Tryptase ε (mean) (cytokine Tryptase ε, group mean, wound tissue of MRSA-infected mice): −0.0627
- share of 200 cytokines with negative fold change vs untreated (fusidic acid alone): around 50%
- fold change of 4-1BB (mean, wound tissue): −0.0924
- fold change of 6Ckine (mean, wound tissue): 0.0930
- fold change of ACE (mean, wound tissue): −0.3271
- fold change of ADAMTS1 (mean, wound tissue): 0.2350
- fold change of ALK-1 (mean, wound tissue): −0.0491
- fold change of ANG-3 (mean, wound tissue): 0.0313
- fold change of ANGPTL3 (mean, wound tissue): −0.2231
- fold change of AR (mean, wound tissue): 0.6274
- fold change of Activin A (mean, wound tissue): 0.2305
- fold change of Adiponen (mean, wound tissue): 0.0147
- fold change of Artemin (mean, wound tissue): 0.4218
- fold change of Axl (mean, wound tissue): 0.0523
- fold change of B7-1 (mean, wound tissue): −0.0561
- fold change of BAFF R (mean, wound tissue): 0.0687
- fold change of BLC (mean, wound tissue): −0.3200
- fold change of BTC (mean, wound tissue): 3.8576
- fold change of C5a (mean, wound tissue): 0.1215
- fold change of CCL6 (mean, wound tissue): −0.4027
- fold change of CCL28 (mean, wound tissue): 1.0791
- fold change of CD6 (mean, wound tissue): 0.3476
- fold change of CD27 (mean, wound tissue): 0.2818
- fold change of CD27L (mean, wound tissue): −0.0491
- fold change of CD30 (mean, wound tissue): 0.0137
- fold change of CD30L (mean, wound tissue): −0.0682
- fold change of CD36 (mean, wound tissue): 0.0674
- fold change of CD40 (mean, wound tissue): 0.3337
- fold change of CD40L (mean, wound tissue): 0.0244
- fold change of CD48 (mean, wound tissue): −0.0498
- fold change of CRP (mean, wound tissue): −0.0863
- fold change of CT-1 (mean, wound tissue): −0.0581
- fold change of CTLA4 (mean, wound tissue): 0.2149
- fold change of CXCL16 (mean, wound tissue): 0.2447
- fold change of Chemerin (mean, wound tissue): 0.1948
- fold change of Chordin (mean, wound tissue): −0.0599
- fold change of Clusterin (mean, wound tissue): 0.2455
- fold change of Cystatin C (mean, wound tissue): −0.0271
- fold change of DLL4 (mean, wound tissue): −0.0252
- fold change of Decorin (mean, wound tissue): −0.0222
- fold change of Dkk-1 (mean, wound tissue): 0.1157
- fold change of Dtk (mean, wound tissue): 0.1217
- fold change of E-Cadherin (mean, wound tissue): 0.1848
- fold change of E-selectin (mean, wound tissue): −0.2004
- fold change of EDAR (mean, wound tissue): −0.4592
- fold change of EGF (mean, wound tissue): 0.0517
- fold change of Endocan (mean, wound tissue): 0.0559
- fold change of Endoglin (mean, wound tissue): 0.4267
- fold change of Eotaxin (mean, wound tissue): 0.8019
- fold change of Eotaxin-2 (mean, wound tissue): 0.0292
- fold change of Epigen (mean, wound tissue): −0.0490
- fold change of Epiregulin (mean, wound tissue): −0.2220
- fold change of Fas (mean, wound tissue): 0.0163
- fold change of Fas L (mean, wound tissue): −0.4112
- fold change of Fcg RIIB (mean, wound tissue): 0.0602
- fold change of Fetuin A (mean, wound tissue): −0.6614
- fold change of Flt-3L (mean, wound tissue): 0.1619
- fold change of Fractalkine (mean, wound tissue): −0.2364
- fold change of G-CSF (mean, wound tissue): 0.1394
- fold change of GITR (mean, wound tissue): 0.3966
- fold change of GITR L (mean, wound tissue): 0.2327
- fold change of GM-CSF (mean, wound tissue): −0.1708
- fold change of Galectin-1 (mean, wound tissue): 0.0284
- fold change of Galectin-3 (mean, wound tissue): 0.0624
- fold change of Galectin-7 (mean, wound tissue): 0.7990
- fold change of Gas 1 (mean, wound tissue): 0.0715
- fold change of Gas 6 (mean, wound tissue): −0.0661
- fold change of Granzyme B (mean, wound tissue): 0.5603
- fold change of Gremlin (mean, wound tissue): 4.9707
- fold change of H60 (mean, wound tissue): 0.2171
- fold change of HAI-1 (mean, wound tissue): 0.2271
- fold change of HGF (mean, wound tissue): 0.2701
- fold change of HGF R (mean, wound tissue): 0.0292
- fold change of I-TAC (mean, wound tissue): 0.3744
- fold change of ICAM-1 (mean, wound tissue): 1.5512
- fold change of IFNg (mean, wound tissue): −0.0599
- fold change of IFNg R1 (mean, wound tissue): 0.0709
- fold change of IGF-1 (mean, wound tissue): −0.4445
- fold change of IGFBP-2 (mean, wound tissue): −0.0879
- fold change of IGFBP-3 (mean, wound tissue): −0.2120
- fold change of IGFBP-5 (mean, wound tissue): −0.0782
- fold change of IGFBP-6 (mean, wound tissue): −0.2897
- fold change of IL-1 R4 (mean, wound tissue): −0.0208
- fold change of IL-1a (mean, wound tissue): −0.0503
- fold change of IL-1b (mean, wound tissue): −0.2158
